{"source": "patent US11045669B2", "about": "“Hydroalcoholic extract of Schinus molle, cosmetic compositions comprising the same and cosmetic uses thereof” (ISP INVESTMENTS LLC, priority 2015, dated 2021)", "key": {"Involucrin (IVL)": {"test_system": "Involucrin (IVL)", "assay": "RT-qPCR expression of IVL in NHEK", "format": "cell-based, human", "conditions": "24 h, CaCl2 1.5 mM", "method": "(§1) The potential effects of a hydroethanolic extract of Schinus molle obtained in accordance with Example 2 on skin hydration and barrier function were studied in a model of normal human epidermal keratinocytes (NHEKs) by analysing the expression profile of genes specific to the differentiation of keratinocytes and lipid synthesis by an RT-qPCR (reverse transcription quantitative polymerase chain reaction) method. […]\n(§2) The expression of the markers was assessed by RT-qPCR on the mRNAs (messenger RNAs) extracted from the cell layers of each treatment (the replicates were pooled before the RNA extraction).\n(§3) The analysis of the expression of the genes was performed with n=2 with the aid of 2 “marker quantitative PCR arrays” containing 16 genes, including 2 housekeeping (HK) genes, dedicated to research and adapted to the screening format (mQPA-NHEK-BARRIER-16, product by BIOalternatives®).\n(§4) The incorporation of fluorescence in the amplified DNA is measured continuously during the course of the PCR cycles. These measurements make it possible to obtain intensity curves of the fluorescence depending on the PCR cycles and to thus evaluate a value of relative expression (RE) for each marker. The number of cycles is determined on the basis of “exit” points of the fluorescence curves. […]"}, "Filaggrin (FLG)": {"test_system": "Filaggrin (FLG)", "assay": "RT-qPCR expression of FLG in NHEK", "format": "cell-based, human", "conditions": "24 h, CaCl2 1.5 mM", "method": "as §1, §2, §3, §4"}, "[1]": {"test_system": "Hyaluronan synthase 3 (HAS3)", "assay": "RT-qPCR expression of HAS3 in NHEK", "format": "cell-based, human", "conditions": "24 h, CaCl2 1.5 mM", "method": "(§5) The potential effects of a hydroethanolic extract of Schinus molle obtained in accordance with Example 2 on skin hydration and barrier function were studied in a model of normal human epidermal keratinocytes (NHEKs) by analysing the expression profile of genes specific to the differentiation of keratinocytes and lipid synthesis by an RT-qPCR (reverse transcription quantitative polymerase chain reaction) method.\n(§6) • Cell type: 3rd passage NHEKs • Culture conditions: 37° C., 5% CO2 • Culture medium: keratinocyte SFM (serum free medium) supplemented with • epidermal growth factor (EGF) 0.25 ng/ml • pituitary extract (PE) 25 μg/ml • gentamicin 25 μg/ml • Test medium: keratinocyte SFM supplemented with gentamicin 25 μg/ml Tested Compounds\n(§7) The normal human epidermal keratinocytes (NHEKs) were seeded and cultivated in culture medium for 24 hours. […] All the conditions were performed with n=3.\nas §2, §3\n(§8) The incorporation of fluorescence in the amplified DNA is measured continuously during the course of the PCR cycles. These measurements make it possible to obtain intensity curves of the fluorescence depending on the PCR cycles and to thus evaluate a value of relative expression (RE) for each marker. The number of cycles is determined on the basis of “exit” points of the fluorescence curves. For the same analysed marker, the later a sample exits (appeared late, after a number of increased cycles), the lower is the initial number of copies of the mRNA.\n(§9) The RE (relative expression) value is expressed in arbitrary units (AU) in accordance with the following formula: (½^number of cycles)×10^6 […]"}, "[2]": {"test_system": "LAG1 homolog, ceramide synthase 6 (LASS6)", "assay": "RT-qPCR expression of LASS6 in NHEK", "format": "cell-based, human", "conditions": "24 h, CaCl2 1.5 mM", "method": "as §5, §6, §7, §2, §3, §8, §9"}, "[3]": {"test_system": "Acyl-CoA synthetase short-chain family member 2 (ACSS2)", "assay": "RT-qPCR expression of ACSS2 in NHEK", "format": "cell-based, human", "conditions": "24 h, CaCl2 1.5 mM", "method": "as §5, §6, §7, §2, §3, §8, §9"}, "[4]": {"test_system": "Serine palmitoyltransferase, long chain base subunit 1 (SPTLC1)", "assay": "RT-qPCR expression of SPTLC1 in NHEK", "format": "cell-based, human", "conditions": "24 h, CaCl2 1.5 mM", "method": "as §5, §6, §7, §2, §3, §8, §9"}, "Claudin 1 (CLDN1)": {"test_system": "Claudin 1 (CLDN1)", "assay": "RT-qPCR expression of CLDN1 in NHEK", "format": "cell-based, human", "conditions": "24 h, CaCl2 1.5 mM", "method": "as §5, §6, §7, §2, §3, §8, §9"}, "[5]": {"test_system": "Transglutaminase 1 (TGM1)", "assay": "RT-qPCR expression of TGM1 in NHEK", "format": "cell-based, human", "conditions": "24 h, CaCl2 1.5 mM", "method": "as §1, §2, §3, §4"}, "[6]": {"test_system": "Sphingomyelin phosphodiesterase 1, acid lysosomal (SMPD1)", "assay": "RT-qPCR expression of SMPD1 in NHEK", "format": "cell-based, human", "conditions": "24 h, CaCl2 1.5 mM", "method": "as §5, §6, §7, §2, §3, §8, §9"}, "[7]": {"test_system": "Arachidonate 12-lipoxygenase (ALOX12)", "assay": "RT-qPCR expression of ALOX12 in NHEK", "format": "cell-based, human", "conditions": "24 h, CaCl2 1.5 mM", "method": "as §1, §2, §3, §4"}, "[8]": {"test_system": "Glucosidase, beta; acid (GBA)", "assay": "RT-qPCR expression of GBA in NHEK", "format": "cell-based, human", "conditions": "24 h, CaCl2 1.5 mM", "method": "as §5, §6, §7, §2, §3, §8, §9"}, "[9]": {"test_system": "Sulfotransferase family, cytosolic, 2B, member 1 (SULT2B1)", "assay": "RT-qPCR expression of SULT2B1 in NHEK", "format": "cell-based, human", "conditions": "24 h, CaCl2 1.5 mM", "method": "as §1, §2, §3, §4"}, "[10]": {"test_system": "Glyceraldehyde-3-phosphate dehydrogenase (GAPDH)", "conditions": "NHEK, 24 h, CaCl2 1.5 mM", "method": "as §5, §6, §7, §2, §3, §8, §9"}, "[11]": {"test_system": "Ribosomal protein S28 (RPS28)", "assay": "RT-qPCR expression of RPS28 (housekeeping) in NHEK", "format": "cell-based, human", "conditions": "24 h, CaCl2 1.5 mM", "method": "as §5, §6, §7, §2, §3, §8, §9"}, "[12]": {"test_system": "UDP-glucose ceramide glucosyltransferase (UGCG)", "assay": "RT-qPCR expression of UGCG in NHEK", "format": "cell-based, human", "conditions": "24 h, CaCl2 1.5 mM", "method": "as §5, §6, §7, §2, §3, §8, §9"}, "[13]": {"test_system": "Fatty acid synthase (FASN)", "assay": "RT-qPCR expression of FASN in NHEK", "format": "cell-based, human", "conditions": "24 h, CaCl2 1.5 mM", "method": "as §5, §6, §7, §2, §3, §8, §9"}, "Aquaporin 3 (AQP3)": {"test_system": "Aquaporin 3 (AQP3)", "assay": "RT-qPCR expression of AQP3 in NHEK", "format": "cell-based, human", "conditions": "24 h, CaCl2 1.5 mM", "method": "as §5, §6, §7, §2, §3, §8, §9"}}}
{"smiles": "[Ca+2].[Cl-].[Cl-]", "note": "[CaCl2, calcium chloride]", "values": [{"measurement": "IVL expression, % Control (GAPDH)", "setting": "Involucrin (IVL)", "value": 175, "unit": "% Control"}, {"measurement": "IVL expression, % Control (RPS28)", "setting": "Involucrin (IVL)", "value": 183, "unit": "% Control"}, {"measurement": "FLG expression, % Control (GAPDH)", "setting": "Filaggrin (FLG)", "value": 151, "unit": "% Control"}, {"measurement": "FLG expression, % Control (RPS28)", "setting": "Filaggrin (FLG)", "value": 157, "unit": "% Control"}, {"measurement": "HAS3 expression, % Control (GAPDH)", "setting": "[1]", "value": 108, "unit": "% Control"}, {"measurement": "HAS3 expression, % Control (RPS28)", "setting": "[1]", "value": 112, "unit": "% Control"}, {"measurement": "HAS3 expression, % Control (mean HK)", "setting": "[1]", "value": 108, "unit": "% Control"}, {"measurement": "LASS6 expression, % Control (GAPDH)", "setting": "[2]", "value": 103, "unit": "% Control"}, {"measurement": "LASS6 expression, % Control (RPS28)", "setting": "[2]", "value": 107, "unit": "% Control"}, {"measurement": "LASS6 expression, % Control (mean HK)", "setting": "[2]", "value": 104, "unit": "% Control"}, {"measurement": "ACSS2 expression, % Control (GAPDH)", "setting": "[3]", "value": 127, "unit": "% Control"}, {"measurement": "ACSS2 expression, % Control (RPS28)", "setting": "[3]", "value": 132, "unit": "% Control"}, {"measurement": "ACSS2 expression, % Control (mean HK)", "setting": "[3]", "value": 128, "unit": "% Control"}, {"measurement": "SPTLC1 expression, % Control (GAPDH)", "setting": "[4]", "value": 95, "unit": "% Control"}, {"measurement": "SPTLC1 expression, % Control (RPS28)", "setting": "[4]", "value": 99, "unit": "% Control"}, {"measurement": "SPTLC1 expression, % Control (mean HK)", "setting": "[4]", "value": 96, "unit": "% Control"}, {"measurement": "CLDN1 expression, % Control (GAPDH)", "setting": "Claudin 1 (CLDN1)", "value": 145, "unit": "% Control"}, {"measurement": "CLDN1 expression, % Control (RPS28)", "setting": "Claudin 1 (CLDN1)", "value": 152, "unit": "% Control"}, {"measurement": "CLDN1 expression, % Control (mean HK)", "setting": "Claudin 1 (CLDN1)", "value": 147, "unit": "% Control"}, {"measurement": "TGM1 expression, % Control (GAPDH)", "setting": "[5]", "value": 274, "unit": "% Control"}, {"measurement": "TGM1 expression, % Control (RPS28)", "setting": "[5]", "value": 285, "unit": "% Control"}, {"measurement": "SMPD1 expression, % Control (GAPDH)", "setting": "[6]", "value": 108, "unit": "% Control"}, {"measurement": "SMPD1 expression, % Control (RPS28)", "setting": "[6]", "value": 113, "unit": "% Control"}, {"measurement": "SMPD1 expression, % Control (mean HK)", "setting": "[6]", "value": 109, "unit": "% Control"}, {"measurement": "ALOX12 expression, % Control (GAPDH)", "setting": "[7]", "value": 151, "unit": "% Control"}, {"measurement": "ALOX12 expression, % Control (RPS28)", "setting": "[7]", "value": 158, "unit": "% Control"}, {"measurement": "GBA expression, % Control (GAPDH)", "setting": "[8]", "value": 123, "unit": "% Control"}, {"measurement": "GBA expression, % Control (RPS28)", "setting": "[8]", "value": 128, "unit": "% Control"}, {"measurement": "GBA expression, % Control (mean HK)", "setting": "[8]", "value": 124, "unit": "% Control"}, {"measurement": "SULT2B1 expression, % Control (GAPDH)", "setting": "[9]", "value": 244, "unit": "% Control"}, {"measurement": "SULT2B1 expression, % Control (RPS28)", "setting": "[9]", "value": 254, "unit": "% Control"}, {"measurement": "GAPDH expression, % Control (GAPDH)", "setting": "[10]", "value": 100, "unit": "% Control"}, {"measurement": "GAPDH expression, % Control (RPS28)", "setting": "[10]", "value": 104, "unit": "% Control"}, {"measurement": "GAPDH expression, % Control (mean HK)", "setting": "[10]", "value": 101, "unit": "% Control"}, {"measurement": "RPS28 expression, % Control (GAPDH)", "setting": "[11]", "value": 96, "unit": "% Control"}, {"measurement": "RPS28 expression, % Control (RPS28)", "setting": "[11]", "value": 100, "unit": "% Control"}, {"measurement": "RPS28 expression, % Control (mean HK)", "setting": "[11]", "value": 97, "unit": "% Control"}, {"measurement": "UGCG expression, % Control (GAPDH)", "setting": "[12]", "value": 118, "unit": "% Control"}, {"measurement": "UGCG expression, % Control (RPS28)", "setting": "[12]", "value": 123, "unit": "% Control"}, {"measurement": "UGCG expression, % Control (mean HK)", "setting": "[12]", "value": 119, "unit": "% Control"}, {"measurement": "FASN expression, % Control (GAPDH)", "setting": "[13]", "value": 105, "unit": "% Control"}, {"measurement": "FASN expression, % Control (RPS28)", "setting": "[13]", "value": 109, "unit": "% Control"}, {"measurement": "FASN expression, % Control (mean HK)", "setting": "[13]", "value": 106, "unit": "% Control"}, {"measurement": "AQP3 expression, % Control (GAPDH)", "setting": "Aquaporin 3 (AQP3)", "value": 110, "unit": "% Control"}, {"measurement": "AQP3 expression, % Control (RPS28)", "setting": "Aquaporin 3 (AQP3)", "value": 115, "unit": "% Control"}, {"measurement": "AQP3 expression, % Control (mean HK)", "setting": "Aquaporin 3 (AQP3)", "value": 111, "unit": "% Control"}]}
